Source: PubChem BioAssay AID248 (DTP/NCI, 2004)
Values joined by “and” are separate entries in the source; they are usually repeats but may differ in a detail not shown here. Identical values can stand only once. Inconclusive results and toxic doses are left out.

Test system: L1210 leukemia ip in BDF1 mice, survival T/C
Experiment: NCI In Vivo Anticancer Drug Screen. Data for tumor model L1210 Leukemia (intraperitoneal) in B6D2F1 (BDF1) mice
Conditions: endpoint: mean survival time, higher = longer survival
In short: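 Transplantable tumor model; survival measured in treated vs vehicle control mice. Value = treated/control.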

[1] = dose: 100.0 mg/kg/injection, schedule: Q04DX003 (ip), vehicle: saline with Tween-80
[2] = dose: 100.0 mg/kg/injection, schedule: Q01DX009 (ip), vehicle: saline
[3] = dose: 200.0 mg/kg/injection, schedule: Q01DX009 (ip), vehicle: saline
[4] = dose: 400.0 mg/kg/injection, schedule: Q01DX009 (ip), vehicle: saline
[5] = dose: 100.0 mg/kg/injection, schedule: Q01DX009 (ip), vehicle: Klucel (hydroxypropylcellulose) (HPC)
[6] = dose: 100.0 mg/kg/injection, schedule: Q04DX003 (ip), vehicle: Klucel (hydroxypropylcellulose) (HPC)
[7] = dose: 200.0 mg/kg/injection, schedule: Q01DX009 (ip), vehicle: Klucel (hydroxypropylcellulose) (HPC)
[8] = dose: 200.0 mg/kg/injection, schedule: Q04DX003 (ip), vehicle: Klucel (hydroxypropylcellulose) (HPC)
[9] = dose: 400.0 mg/kg/injection, schedule: Q01DX009 (ip), vehicle: Klucel (hydroxypropylcellulose) (HPC)
[10] = dose: 400.0 mg/kg/injection, schedule: Q04DX003 (ip), vehicle: Klucel (hydroxypropylcellulose) (HPC)
[11] = dose: 50.0 mg/kg/injection, schedule: Q01DX001 (ip), vehicle: saline
[12] = dose: 100.0 mg/kg/injection, schedule: Q01DX001 (ip), vehicle: saline
[13] = dose: 200.0 mg/kg/injection, schedule: Q01DX001 (ip), vehicle: saline
[14] = dose: 400.0 mg/kg/injection, schedule: Q01DX001 (ip), vehicle: saline
[15] = dose: 100.0 mg/kg/injection, schedule: Q01DX001 (ip), vehicle: Klucel (hydroxypropylcellulose) (HPC)

SMILES: CN=C(NC(C)C)c1ccc(NC(=O)c2ccc(C(=O)Nc3ccc(C(=NC)NC(C)C)cc3)cc2)cc1
- T/C (dose: 2.0 mg/kg/injection, schedule: Q01DX Z (ip), vehicle: carboxymethylcellulose (CMC)): 97 % of control
- T/C (dose: 4.0 mg/kg/injection, schedule: Q01DX Z (ip), vehicle: carboxymethylcellulose (CMC)): 101 % of control
- T/C (dose: 6.0 mg/kg/injection, schedule: Q01DX Z (ip), vehicle: carboxymethylcellulose (CMC)): 112 % of control
- T/C (dose: 16.0 mg/kg/injection, schedule: Q01DX Z (ip), vehicle: carboxymethylcellulose (CMC)): 151 % of control
- T/C (dose: 25.0 mg/kg/injection, schedule: Q01DX Z (oral), vehicle: carboxymethylcellulose (CMC)): 96 % of control
- T/C (dose: 31.0 mg/kg/injection, schedule: Q01DX Z (ip), vehicle: methylcellulose (MC)): 117 % of control
- T/C (dose: 50.0 mg/kg/injection, schedule: Q01DX Z (oral), vehicle: carboxymethylcellulose (CMC)): 101 % of control
- T/C (dose: 62.5 mg/kg/injection, schedule: Q01DX Z (ip), vehicle: methylcellulose (MC)): 157 % of control
- T/C (dose: 100.0 mg/kg/injection, schedule: Q01DX Z (oral), vehicle: carboxymethylcellulose (CMC)): 96 % of control
- T/C (dose: 125.0 mg/kg/injection, schedule: Q01DX Z (ip), vehicle: methylcellulose (MC)): 157 % of control
- T/C (dose: 200.0 mg/kg/injection, schedule: Q01DX Z (oral), vehicle: carboxymethylcellulose (CMC)): 101 % of control
- T/C (dose: 250.0 mg/kg/injection, schedule: Q01DX Z (ip), vehicle: methylcellulose (MC)): 97 % of control

SMILES: CC(C)N(C(=O)C1C2C=CC(C2)C1C(=O)N(C(C)C)C(C)C)C(C)C (configuration not stated)
- T/C (dose: 25.0 mg/kg/injection, schedule: Q04DX003 (ip), vehicle: saline with Tween-80): 98 % of control
- T/C (dose: 50.0 mg/kg/injection, schedule: Q04DX003 (ip), vehicle: saline with Tween-80): 98 % of control
- T/C [1]: 106 % of control and 107 % of control

SMILES: CCOCCCCO
- T/C [2]: 96 % of control
- T/C [3]: 92 % of control
- T/C [4]: 94 % of control

SMILES: CC(C)Cc1ccc(C(=O)O)cc1
- T/C [5]: 94 % of control
- T/C [6]: 97 % of control
- T/C [7]: 94 % of control
- T/C [8]: 108 % of control
- T/C [9]: 94 % of control
- T/C [10]: 102 % of control

SMILES: CSC(=S)NNC(=O)C1CCCCC1
- T/C (dose: 100.0 mg/kg/injection, schedule: Q04DX003 (ip), vehicle: saline): 106 % of control
- T/C (dose: 200.0 mg/kg/injection, schedule: Q04DX003 (ip), vehicle: saline): 98 % of control
- T/C (dose: 400.0 mg/kg/injection, schedule: Q04DX003 (ip), vehicle: saline): 104 % of control

SMILES: CC(C)(C(=O)O)S(=O)(=O)O
- T/C [2]: 108 % of control
- T/C [3]: 97 % of control
- T/C [4]: 103 % of control

SMILES: O=C(CSc1ccc([N+](=O)[O-])cc1)c1ccccc1
- T/C [11]: 104 % of control
- T/C [12]: 98 % of control
- T/C [13]: 91 % of control
- T/C [14]: 96 % of control

SMILES: Cc1cc(N=[N+]([O-])c2ccc(N)c(C)c2)ccc1N
- T/C [12]: 95 % of control
- T/C [13]: 91 % of control
- T/C [3]: 96 % of control
- T/C [14]: 93 % of control
- T/C [4]: 96 % of control

SMILES: Cc1cc(C2CCCCC2)c2ccccc2c1C
- T/C (dose: 100.0 mg/kg/injection, schedule: Q01DX009 (ip), vehicle: saline sonified): 95 % of control
- T/C [6]: 103 % of control
- T/C (dose: 200.0 mg/kg/injection, schedule: Q01DX009 (ip), vehicle: saline sonified): 102 % of control
- T/C [8]: 98 % of control
- T/C (dose: 400.0 mg/kg/injection, schedule: Q01DX009 (ip), vehicle: saline sonified): 99 % of control
- T/C [10]: 106 % of control

SMILES: CCN(CC)C(=S)[S][Bi]([S]C(=S)N(CC)CC)[S]C(=S)N(CC)CC
- T/C (dose: 100.0 mg/kg/injection, schedule: Q01DX001 (ip), vehicle: steriod suspending solution): 112 % of control
- T/C (dose: 200.0 mg/kg/injection, schedule: Q01DX001 (ip), vehicle: steriod suspending solution): 91 % of control
- T/C (dose: 400.0 mg/kg/injection, schedule: Q01DX001 (ip), vehicle: steriod suspending solution): 96 % of control

SMILES: COc1cc(/C=C2\CN(C)C(=O)C2=O)ccc1O
- T/C (dose: 100.0 mg/kg/injection, schedule: Q01DX009 (ip), vehicle: saline with Tween-80): 101 % of control
- T/C [1]: 105 % of control
- T/C (dose: 200.0 mg/kg/injection, schedule: Q01DX009 (ip), vehicle: saline with Tween-80): 100 % of control
- T/C (dose: 200.0 mg/kg/injection, schedule: Q04DX003 (ip), vehicle: saline with Tween-80): 98 % of control
- T/C (dose: 400.0 mg/kg/injection, schedule: Q01DX009 (ip), vehicle: saline with Tween-80): 101 % of control
- T/C (dose: 400.0 mg/kg/injection, schedule: Q04DX003 (ip), vehicle: saline with Tween-80): 96 % of control

SMILES: CC(C)(C)C1=CC(C(C)(C)C)CCC1=O (configuration not stated)
- T/C (dose: 100.0 mg/kg/injection, schedule: Q04DX003 (ip), vehicle: acetone): 98 % of control
- T/C (dose: 200.0 mg/kg/injection, schedule: Q04DX003 (ip), vehicle: acetone): 102 % of control
- T/C (dose: 400.0 mg/kg/injection, schedule: Q04DX003 (ip), vehicle: acetone): 92 % of control

SMILES: CCOc1cccc(OCC)c1C
- T/C [6]: 97 % of control
- T/C [8]: 94 % of control
- T/C [10]: 101 % of control

SMILES: O=C1c2ccccc2C(=O)c2c1ccc1nc(Cl)c(=O)[nH]c21
- T/C (dose: 100.0 mg/kg/injection, schedule: Q01DX001 (ip), vehicle: carboxymethylcellulose (CMC)): 93 % of control
- T/C (dose: 200.0 mg/kg/injection, schedule: Q01DX001 (ip), vehicle: carboxymethylcellulose (CMC)): 95 % of control
- T/C (dose: 400.0 mg/kg/injection, schedule: Q01DX001 (ip), vehicle: carboxymethylcellulose (CMC)): 100 % of control

SMILES: Cc1ccc(NC(=O)Oc2cc(C)c(Cl)c(C)c2)cc1
- T/C [5]: 94 % of control
- T/C [7]: 97 % of control
- T/C [9]: 96 % of control

SMILES: CCN1CCCC(OC(=O)c2cccc3[nH]ccc23)C1 (configuration not stated)
- T/C [15]: 93 % of control
- T/C [6]: 103 % of control
- T/C (dose: 200.0 mg/kg/injection, schedule: Q01DX001 (ip), vehicle: Klucel (hydroxypropylcellulose) (HPC)): 97 % of control
- T/C [8]: 101 % of control
- T/C (dose: 400.0 mg/kg/injection, schedule: Q01DX001 (ip), vehicle: Klucel (hydroxypropylcellulose) (HPC)): 98 % of control
- T/C [10]: 101 % of control

SMILES: O=C1/C(=C/c2ccccc2)CCC/C1=C\c1ccccc1
- T/C (dose: 100.0 mg/kg/injection, schedule: Q04DX002 (ip), vehicle: saline with Tween-80): 92 % of control
- T/C (dose: 200.0 mg/kg/injection, schedule: Q04DX002 (ip), vehicle: saline with Tween-80): 92 % of control
- T/C (dose: 400.0 mg/kg/injection, schedule: Q04DX002 (ip), vehicle: saline with Tween-80): 95 % of control

SMILES: O=C(Cc1ccccc1[N+](=O)[O-])NCCc1ccc2c(c1)OCO2
- T/C (dose: 100.0 mg/kg/injection, schedule: Q01DX001 (ip), vehicle: other): 86 % of control
- T/C (dose: 200.0 mg/kg/injection, schedule: Q01DX001 (ip), vehicle: other): 89 % of control
- T/C (dose: 400.0 mg/kg/injection, schedule: Q01DX001 (ip), vehicle: other): 89 % of control

SMILES: N=c1ccn(C(=O)C2=Cc3ccccc3OC2)cc1
- T/C (dose: 5.0 mg/kg/injection, schedule: Q01DX009 (ip), vehicle: saline with Tween-80): 101 % of control
- T/C (dose: 10.0 mg/kg/injection, schedule: Q01DX009 (ip), vehicle: saline with Tween-80): 90 % of control
- T/C (dose: 10.0 mg/kg/injection, schedule: Q04DX003 (ip), vehicle: saline with Tween-80): 100 % of control
- T/C (dose: 20.0 mg/kg/injection, schedule: Q01DX009 (ip), vehicle: saline with Tween-80): 96 % of control
- T/C (dose: 20.0 mg/kg/injection, schedule: Q04DX003 (ip), vehicle: saline with Tween-80): 98 % of control

SMILES: CC(N)C(=O)NC(C)C(=O)O (configuration not stated)
- T/C (dose: 25.0 mg/kg/injection, schedule: Q01DX001 (ip), vehicle: Klucel (hydroxypropylcellulose) (HPC)): 97 % of control
- T/C (dose: 25.0 mg/kg/injection, schedule: Q01DX001 (ip), vehicle: saline): 102 % of control
- T/C (dose: 25.0 mg/kg/injection, schedule: Q04DX002 (ip), vehicle: saline): 102 % of control
- T/C (dose: 50.0 mg/kg/injection, schedule: Q01DX001 (ip), vehicle: Klucel (hydroxypropylcellulose) (HPC)): 97 % of control
- T/C [11]: 97 % of control
- T/C (dose: 50.0 mg/kg/injection, schedule: Q04DX002 (ip), vehicle: saline): 96 % of control
- T/C [15]: 97 % of control
- T/C [12]: 93 % of control
- T/C (dose: 100.0 mg/kg/injection, schedule: Q04DX002 (ip), vehicle: saline): 102 % of control
